Values joined by “and” are separate entries in the source; they are usually repeats but may differ in a detail not shown here. Equal values may be shown once. Inconclusive results and toxic doses are left out. Rule as the data show it: active = T/C of 150% or more; inactive = T/C below 125%.
Tested on: L1210 leukemia ip in BDF1 mice, survival T/C
Assay: NCI In Vivo Anticancer Drug Screen. Data for tumor model L1210 Leukemia (intraperitoneal) in B6D2F1 (BDF1) mice
Conditions: endpoint: mean survival time, higher = longer survival
How it was run: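 Transplanted-tumor mice were given test agent; controls received vehicle only. Survival readings from the two groups were divided (treated over control).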

[1] = dose: 50.0 mg/kg/injection, schedule: Q01DX005 (ip), vehicle: saline
[2] = dose: 100.0 mg/kg/injection, schedule: Q01DX005 (ip), vehicle: saline
[3] = dose: 100.0 mg/kg/injection, schedule: Q01DX009 (ip), vehicle: Klucel (hydroxypropylcellulose) (HPC)
[4] = dose: 200.0 mg/kg/injection, schedule: Q01DX009 (ip), vehicle: Klucel (hydroxypropylcellulose) (HPC)
[5] = dose: 100.0 mg/kg/injection, schedule: Q01DX001 (ip), vehicle: carboxymethylcellulose (CMC)
[6] = dose: 200.0 mg/kg/injection, schedule: Q01DX001 (ip), vehicle: carboxymethylcellulose (CMC)
[7] = dose: 400.0 mg/kg/injection, schedule: Q01DX001 (ip), vehicle: carboxymethylcellulose (CMC)
[8] = dose: 25.0 mg/kg/injection, schedule: Q01DX009 (ip), vehicle: saline with Tween-80
[9] = dose: 25.0 mg/kg/injection, schedule: Q04DX003 (ip), vehicle: saline with Tween-80
[10] = dose: 50.0 mg/kg/injection, schedule: Q01DX009 (ip), vehicle: saline with Tween-80
[11] = dose: 50.0 mg/kg/injection, schedule: Q04DX003 (ip), vehicle: saline with Tween-80
[12] = dose: 100.0 mg/kg/injection, schedule: Q01DX009 (ip), vehicle: saline with Tween-80
[13] = dose: 100.0 mg/kg/injection, schedule: Q04DX002 (ip), vehicle: saline with Tween-80
[14] = dose: 200.0 mg/kg/injection, schedule: Q01DX009 (ip), vehicle: saline with Tween-80
[15] = dose: 400.0 mg/kg/injection, schedule: Q01DX009 (ip), vehicle: saline with Tween-80

Measured: T/C

CCC(C(=O)c1cccs1)C(O)(C(F)(F)F)C(F)(F)F (configuration not stated)
inactive: dose: 100.0 mg/kg/injection, schedule: Q01DX001 (ip), vehicle: Klucel (hydroxypropylcellulose) (HPC) 102 % of control | dose: 200.0 mg/kg/injection, schedule: Q01DX001 (ip), vehicle: Klucel (hydroxypropylcellulose) (HPC) 97 % of control | dose: 400.0 mg/kg/injection, schedule: Q01DX001 (ip), vehicle: Klucel (hydroxypropylcellulose) (HPC) 94 % of control

O=C1C2C(C(=O)N1c1ccc([N+](=O)[O-])cc1)C1c3ccccc3C2C2CCCCN21 (configuration not stated)
inactive: dose: 50.0 mg/kg/injection, schedule: Q01DX009 (ip), vehicle: saline 95 % of control | dose: 50.0 mg/kg/injection, schedule: Q04DX003 (ip), vehicle: saline 104 % of control | dose: 100.0 mg/kg/injection, schedule: Q01DX009 (ip), vehicle: saline 92 % of control | dose: 100.0 mg/kg/injection, schedule: Q04DX003 (ip), vehicle: saline 97 % of control | dose: 200.0 mg/kg/injection, schedule: Q04DX003 (ip), vehicle: saline 88 % of control

CC(=O)Nc1cc2[nH]cnc2c(Br)n1
inactive: dose: 25.0 mg/kg/injection, schedule: Q01DX005 (ip), vehicle: saline 100 % of control | [1] 105 % of control | [2] 110 % of control

OCCc1ccccc1O
inactive: dose: 50.0 mg/kg/injection, schedule: Q01DX001 (ip), vehicle: saline 94 % of control | dose: 100.0 mg/kg/injection, schedule: Q01DX001 (ip), vehicle: saline 94 % of control | dose: 200.0 mg/kg/injection, schedule: Q01DX001 (ip), vehicle: saline 100 % of control | dose: 400.0 mg/kg/injection, schedule: Q01DX001 (ip), vehicle: saline 100 % of control

Cc1cc(S(=O)(=O)F)ccc1NC(=O)Oc1ccccc1
inactive: dose: 100.0 mg/kg/injection, schedule: Q04DX003 (ip), vehicle: gum acacia 95 % of control | dose: 200.0 mg/kg/injection, schedule: Q04DX003 (ip), vehicle: gum acacia 104 % of control | dose: 400.0 mg/kg/injection, schedule: Q04DX003 (ip), vehicle: gum acacia 87 % of control

COc1ccc([N+](=O)[O-])cc1NC(=O)Nc1nccs1
inactive: dose: 50.0 mg/kg/injection, schedule: Q01DX009 (ip), vehicle: Klucel (hydroxypropylcellulose) (HPC) 105 % of control | [3] 105 % of control | [4] 101 % of control

CC(C)=CBr
inactive: dose: 50.0 mg/kg/injection, schedule: Q01DX009 (ip), vehicle: acetone 96 % of control | dose: 100.0 mg/kg/injection, schedule: Q01DX009 (ip), vehicle: acetone 89 % of control | dose: 200.0 mg/kg/injection, schedule: Q01DX009 (ip), vehicle: acetone 103 % of control

O=[N+]([O-])/C=C/c1ccc(Cl)cc1Cl
inactive: dose: 20.0 mg/kg/injection, schedule: Q01DX009 (ip), vehicle: saline with Tween-80 98 % of control | dose: 20.0 mg/kg/injection, schedule: Q04DX003 (ip), vehicle: saline with Tween-80 90 % of control | dose: 25.0 mg/kg/injection, schedule: Q04DX002 (ip), vehicle: Klucel (hydroxypropylcellulose) (HPC) 106 % of control | dose: 40.0 mg/kg/injection, schedule: Q01DX009 (ip), vehicle: saline with Tween-80 102 % of control | dose: 40.0 mg/kg/injection, schedule: Q04DX003 (ip), vehicle: saline with Tween-80 101 % of control | dose: 50.0 mg/kg/injection, schedule: Q01DX001 (ip), vehicle: carboxymethylcellulose (CMC) 95 % of control | dose: 50.0 mg/kg/injection, schedule: Q04DX002 (ip), vehicle: Klucel (hydroxypropylcellulose) (HPC) 100 % of control | dose: 80.0 mg/kg/injection, schedule: Q04DX003 (ip), vehicle: saline with Tween-80 111 % of control | [5] 98 % of control | [6] 89 % of control | [7] 101 % of control

NC(=S)N=Nc1c(O)[nH]c(=O)[nH]c1=O
inactive: dose: 12.5 mg/kg/injection, schedule: Q01DX009 (ip), vehicle: saline with Tween-80 98 % of control | dose: 12.5 mg/kg/injection, schedule: Q04DX003 (ip), vehicle: saline with Tween-80 97 % of control | [8] 104 % of control | [9] 92 % of control | [10] 104 % of control | [11] 96 % of control

CCCCCCCCCCCCCCCCS(=O)(=O)N/N=C/c1ccc(Cl)cc1Cl
inactive: [5] 98 % of control | [6] 101 % of control | [7] 107 % of control

CC(C)(C)CC(C)(C)c1ccc(OCCOc2ccc(C(=O)O)cc2)cc1
inactive: [3] 88 % of control | [4] 92 % of control | dose: 400.0 mg/kg/injection, schedule: Q01DX009 (ip), vehicle: Klucel (hydroxypropylcellulose) (HPC) 92 % of control

Cc1ccc(Cl)cc1NC(=O)Nc1ccccc1F
inactive: [9] 94 % of control | [11] 86 % of control and 91 % of control | dose: 100.0 mg/kg/injection, schedule: Q01DX001 (ip), vehicle: saline with Tween-80 92 % of control | [12] 103 % of control and 105 % of control | [13] 98 % of control and 92 % of control | dose: 100.0 mg/kg/injection, schedule: Q04DX003 (ip), vehicle: saline with Tween-80 104 % of control and 90 % of control | dose: 200.0 mg/kg/injection, schedule: Q01DX001 (ip), vehicle: saline with Tween-80 92 % of control | [14] 98 % of control and 90 % of control | dose: 200.0 mg/kg/injection, schedule: Q04DX002 (ip), vehicle: saline with Tween-80 95 % of control and 92 % of control | dose: 400.0 mg/kg/injection, schedule: Q01DX001 (ip), vehicle: saline with Tween-80 89 % of control | [15] 94 % of control and 92 % of control | dose: 400.0 mg/kg/injection, schedule: Q04DX002 (ip), vehicle: saline with Tween-80 90 % of control and 92 % of control

Cc1ccc2ccccc2c1N(CC(=O)O)S(=O)(=O)c1ccccc1
inactive: dose: 100.0 mg/kg/injection, schedule: Q04DX003 (ip), vehicle: saline sonified 93 % of control | dose: 200.0 mg/kg/injection, schedule: Q04DX003 (ip), vehicle: saline sonified 102 % of control | dose: 400.0 mg/kg/injection, schedule: Q04DX003 (ip), vehicle: saline sonified 101 % of control

CCOC(C#CC1CCCC1)OCC
inactive: [10] 95 % of control | [12] 92 % of control | [14] 100 % of control

O=C(NN1C(=O)CSC1=S)c1ccc([N+](=O)[O-])s1
inactive: [1] 96 % of control | [2] 102 % of control

COC(=O)C(=O)c1c(-c2ccc[n+](Cc3ccccc3)c2)[nH]c2ccccc12
inactive: dose: 75.0 mg/kg/injection, schedule: Q01DX001 (ip), vehicle: saline 101 % of control | dose: 150.0 mg/kg/injection, schedule: Q01DX001 (ip), vehicle: saline 93 % of control

CC(=O)NC1C(Oc2ccccc2)OC(C(O)CO)C1O (configuration not stated)
inactive: dose: 100.0 mg/kg/injection, schedule: Q01DX001 (sc), vehicle: saline 108 % of control | dose: 200.0 mg/kg/injection, schedule: Q01DX001 (sc), vehicle: saline 103 % of control | dose: 400.0 mg/kg/injection, schedule: Q01DX001 (sc), vehicle: saline 108 % of control

CC#CS(=O)(=O)c1ccccc1
inactive: dose: 100.0 mg/kg/injection, schedule: Q04DX003 (ip), vehicle: Klucel (hydroxypropylcellulose) (HPC) 94 % of control | dose: 200.0 mg/kg/injection, schedule: Q04DX003 (ip), vehicle: Klucel (hydroxypropylcellulose) (HPC) 95 % of control | dose: 400.0 mg/kg/injection, schedule: Q04DX003 (ip), vehicle: Klucel (hydroxypropylcellulose) (HPC) 98 % of control

CC(=O)OC1C2CCC(C2)C1C (configuration not stated)
inactive: [12] 98 % of control | [14] 104 % of control | [15] 96 % of control

CCC(CN(C)C)C(=O)c1ccccc1 (configuration not stated)
inactive: dose: 6.0 mg/kg/injection, schedule: Q01DX009 (ip), vehicle: saline 93 % of control | dose: 12.0 mg/kg/injection, schedule: Q01DX009 (ip), vehicle: saline 91 % of control | [8] 93 % of control | dose: 25.0 mg/kg/injection, schedule: Q01DX009 (ip), vehicle: saline 88 % of control | dose: 25.0 mg/kg/injection, schedule: Q04DX002 (ip), vehicle: saline with Tween-80 100 % of control | [10] 96 % of control | dose: 50.0 mg/kg/injection, schedule: Q04DX002 (ip), vehicle: saline with Tween-80 96 % of control | [12] 93 % of control | [13] 104 % of control
